According to paper PMC11249626, “Fluorophore-Labeled Pyrrolones Targeting the Intracellular Allosteric Binding Site of the Chemokine Receptor CCR1” (ACS Pharmacology & Translational Science, 2024):
Like-named read-outs stand apart in the source and are kept apart here.

How the values were obtained:
CCR1 [1] = molecular target: T1, CCR1 (Homo sapiens, UniProt P32246); assay: Live cell NanoBRET binding assay, HEK293T cells expressing CCR1_Nluc; parameters: Promega pNLF1-C (Nluc) #CCR010TN00; host or cells: HEK293T, transient (PEI); settings: for Ki: 12 (1000 nM), live HEK293T cells
T1 sequence (P32246 1-355): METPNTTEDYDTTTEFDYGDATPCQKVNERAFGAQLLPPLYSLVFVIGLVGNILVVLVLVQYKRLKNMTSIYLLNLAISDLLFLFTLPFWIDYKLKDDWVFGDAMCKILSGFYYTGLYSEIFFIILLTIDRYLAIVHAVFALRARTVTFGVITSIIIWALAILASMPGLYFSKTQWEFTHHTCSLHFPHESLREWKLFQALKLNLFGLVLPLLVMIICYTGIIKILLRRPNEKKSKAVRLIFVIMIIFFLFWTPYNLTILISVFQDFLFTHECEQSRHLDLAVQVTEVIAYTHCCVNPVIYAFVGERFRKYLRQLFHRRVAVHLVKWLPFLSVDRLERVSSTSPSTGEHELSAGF

CCR1 [2] = molecular target: T1, CCR1; assay: Membrane-based NanoBRET saturation binding assay, CCR1_Nluc membranes from HEK293T cells; parameters: Promega pNLF1-C (Nluc) #CCR010TN00; host or cells: HEK293T, transient (PEI); settings: saturation binding of fluorescent ligand, read-out: KD (equilibrium, KD(eq.))
From the text: To evaluate the CCR1 affinity of previously reported (8–9) and new fluorescently labeled pyrrolones (11–12), we developed a NanoBRET-based binding assay (Figures 4A–H and S2A–J). To this end, we used a previously reported CCR1 construct (hereafter referred to as CCR1_Nluc) with a small and bright luciferase variant (nanoluciferase,[52] Nluc), fused to the intracellular C-terminus of CCR1 (Figures 4A and S2A).[47] […] This was expected, given the very low CCR2/CCR1 selectivity of the parental ligands 4 and 5 (Figure 1).[33] For further studies, we selected 12 due to its highest CCR1 affinity.
Cell culture: HEK293T cells were cultured as previously described.8 In brief, HEK293T cells (gift from Chair of Physiology, Prof. Dr. Alzheimer, FAU Erlangen-Nürnberg) were grown on 10 cm culture dishes at 37 °C and 5% CO2. As growth medium, Dulbecco's Modified Eagle Medium (DMEM)/F12 (Invitrogen) supplemented with 10% fetal bovine serum (FBS, Gibco™ Fetal Bovine Serum, qualified, Brazil), L-glutamine (final concentration: 2 mM; from Gibco™ L-glutamine 200 mM, 100X), penicillin (final concentration: 100 units/mL), and streptomycin (final concentration: 100 µg/mL; from Gibco™ Penicillin-Streptomycin 10,000 U/mL) was used. Cells were split every three to four days and regularly confirmed to be free of mycoplasma contamination using the luminescence-based MycoAlert Plus Kit (Lonza).
Transient transfection using polyethylenimine: For transfection, we used a previously published procedure.8 In brief, HEK293T cells were plated onto culture dishes (Ø 10 cm or Ø 15 cm) and grown to a confluence of approximately 50% at 37 °C and 5% CO2. The growth medium was renewed one-hour before transfection. The transfection mix was prepared, as described in the following. Solution A (0.4-2.2% total DNA (1-5.5 µg) in Gibco™ phosphate buffered saline, pH 7.4) and solution B (3% PEI (linear, 25 kDa, from Polysciences) solution prepared from a PEI stock solution (0.4 µg/µL) in PBS without MgCl2 and CaCl2) were mixed one to one, the resulting mixture was vortexed for 5 s and incubated for 30 min at room temperature. The pre-incubated transfection mix was added dropwise to the cells and cell cultivation was continued […]
Membrane preparation: Membranes were prepared as previously reported.8 In brief, membranes from HEK293T cells transiently expressing the respective GPCR were prepared as follows. The medium of the transfected cells was refreshed after 24 h before cells were harvested 48 h post-transfection. […]
Finally, the protein concentration was determined using the Lowry method.9 cDNA constructs: The CCR1-Nluc fusion construct (CCR1_Nluc) in pcDNA3.1 was generated as previously reported1 using the Gibson Assembly10 (New England Biolabs) method. […]

SMILES	Ki (CCR1 [1]; read-out: Ki, live cells)	Kd (CCR1 [2])	Ki (CCR1 [1]; read-out: pKi ± SEM, live cells (converted))	Kd (CCR1 [1]; live HEK293T cells expressing CCR1_Nluc)
CC(=O)C1=C(O)C(=O)N(c2ccc(Br)cc2F)C1C1CCCCC1 (stereo not drawn) [compound 5, reference compound]	24.2 nM			
CN(C)c1ccc2c(-c3cc(C(=O)NCCOCCOCc4cn(CCCC(=O)C5=C(O)C(=O)N(c6ccc(Cl)cc6F)C5C5CCCCC5)nn4)ccc3C(=O)[O-])c3ccc(=[N+](C)C)cc-3oc2c1 (stereo not drawn) [compound 11]		3170 ± 370 nM		
O=C(C1=C(O)C(=O)N(CCc2ccc(O)cc2)C1c1ccc(F)cc1)c1ccccc1 (racemic) [compound 23]	235 nM		229 nM	
CN(C)c1ccc2c(-c3cc(C(=O)NCCOCCOCc4cn(CCCC(=O)C5=C(O)C(=O)N(c6ccc(Br)cc6F)C5C5CCCCC5)nn4)ccc3C(=O)[O-])c3ccc(=[N+](C)C)cc-3oc2c1 (stereo not drawn) [compound 12]		1900 ± 180 nM		505 ± 93 nM
